“And” between values parts separate entries of the source, which are not always exact repeats. Equal values may be shown once.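 In this assay, cells in 96-well plates receive the compound at five concentrations for 48 hours. Endpoints are linearly interpolated between the surrounding concentrations. Here, GI50 denotes the concentration required for 50% inhibition of growth. At the TGI there is no net growth.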
What was measured:
Experiment in all cases: NCI tumour cell line growth inhibition, 48 h
[1] = system: HT29 colon
[2] = system: MOLT-4 leukemia
[3] = system: NCI-H23 lung
[4] = system: OVCAR-3 ovarian
[5] = system: OVCAR-5 ovarian
[6] = system: OVCAR-8 ovarian
[7] = system: RPMI-8226 leukemia
[8] = system: SF-295 CNS
[9] = system: SK-MEL-2 melanoma
[10] = system: SNB-19 CNS

Structure (SMILES)	TGI [1] [µM]	TGI [2] [µM]	TGI [3] [µM]	TGI [4] [µM]	TGI [5] [µM]	TGI [6] [µM]	TGI [7] [µM]	TGI [8] [µM]	TGI [9] [µM]	TGI [10]	GI50 [1] [µM]	GI50 [2] [µM]	GI50 [3] [µM]	GI50 [4] [µM]	GI50 [5] [µM]	GI50 [6] [µM]	GI50 [7] [µM]	GI50 [8] [µM]	GI50 [9] [µM]	GI50 [10] [µM]
Cc1nc2c(o1)C(=Nc1ccccc1)c1ccccc1C2=O	35.9	48.3	5.25	6.21	32.4	13.4	38.1	30.8	18.9	23.7 µM	–	–	–	–	–	–	–	–	–	–
COc1cccc(-c2nn(-c3ccccc3)cc2-c2ccnc(NCCNC(=O)Nc3cccc(C(F)(F)F)c3)c2)c1	3.47	4.81	4.15	4.32	3.63	9.77	5.54	3.28	3.6	11.9 µM	1.68	2.02	1.86	1.99	1.51	3.3	2.23	1.66	1.69	3.12
N#CC1CCCCOCCOCCOCCOCCOCCCCCC1=O (stereo not given)	> 100	> 100	> 100	> 100	> 100	> 100	> 100	> 100	> 100	> 100 µM	–	–	–	–	–	–	–	–	–	–
CN(Cc1cccc(F)c1)c1ccc(CO)c(Cl)c1	59.7	> 83.5	> 92.6	15	2.61	> 100	> 68.3	> 100	33.7	> 100 µM	7.02	29	13.3	3.08	0.41	20.3	13.3	3.6	8.39	32.8
O=C1C2=C(c3ccccc31)C(c1ccccc1)N1C(=O)CSC1=N2 (stereo not given)	96.9	> 100	> 100	> 100	> 100	> 100	> 100	> 100	> 100	> 100 µM	–	–	–	–	–	–	–	–	–	–
NC1=NC(c2ccc(Cl)cc2)N(c2ccc(S(N)(=O)=O)cc2)C(N)=N1 (stereo not given)	> 100	> 100	> 100	> 100	> 100	> 100	> 100	> 100	> 100	> 100 µM	–	–	–	–	–	–	–	–	–	–
CC(=O)OC1=CC2=CC[C@H]3[C@@H]4CCC(=O)[C@@]4(C)CC(=O)[C@]3(S)[C@@]2(C)CC1	> 100	37.4	> 100	69.3	> 100	> 100	53.5	> 100	> 100	> 100 µM	–	–	–	–	–	–	–	–	–	–
O=[N+]([O-])c1ccc(C2CC(c3ccccc3Cl)=Nc3ccccc3S2=O)cc1 (stereo not given)	5.73	7.47	11.7	8.12	18.6	11.7	4.19	15.3	51.7	12.4 µM	–	–	–	–	–	–	–	–	–	–
CC(=O)NC1C(OCc2ccccc2)OC(CO)C(O)C1OC(C)C(=O)N[C@@H](C)C(=O)N[C@H](CCC(=O)OCCNc1c2ccccc2nc2cccc([N+](=O)[O-])c12)C(N)=O (stereo not given in full)	0.00443	> 0.1	0.00545	0.00427	0.0061	0.028	> 0.1	0.0339	0.00414	0.00277 µM and 0.00694 µM	–	–	–	–	–	–	–	–	–	–
COC1=C(C)C(=O)c2c(c(CCCl)c3n2CCC3O)C1=O (stereo not given)	0.67	99.4	0.799	6.72	7.72	23.9	21.8	0.779	1.57	13.6 µM	0.197	7.37	0.133	2.19	0.411	1.78	3.08	0.237	0.376	0.407
COc1cc(-c2cc(-c3ccc(Nc4ccnc5cc(Cl)ccc45)cc3)nc(N3CCOCC3)n2)cc(OC)c1OC	4.61	9.2	6.22	3.67	4.72	4.7	5.02	4.12	48	5.28 µM	1.97	2.58	2.2	1.89	2.19	2.12	1.57	1.95	11.8	2.36
COC(=O)C1OC2(CCCC3CC32)O[C@H]1C(=O)OC (stereo not given in full)	> 100	> 100	> 100	> 100	> 100	> 100	> 100	> 100	> 100	> 100 µM	–	–	–	–	–	–	–	–	–	–
Cc1cn(C2C=CC(CO)O2)c(=O)[nH]c1=O (stereo not given)	> 1000	> 1000	> 1000	> 1000	> 1000	> 1000	> 1000	> 1000	> 1000	> 1000 µM	–	–	–	–	–	–	–	–	–	–
COc1ccc2c(C3(c4cn(C)c5cc(OC)ccc45)C(=O)Nc4ccc(Cl)cc43)cn(C)c2c1	24	8.01	> 100	18.4	> 100	> 100	> 100	> 100	6.55	> 100 µM	3.22	2.58	3.99	4.31	5.37	3.09	3.94	5.16	2.97	5.81
CC1(C)O[C@@H](CCl)C[C@H](C#N)O1	> 100	> 100	> 100	> 100	> 100	> 100	> 100	> 100	> 100	> 100 µM	–	–	–	–	–	–	–	–	–	–

From PubChem BioAssay (NCI)
